In general, inhibition refers to the share of the control response that was lost under treatment.

The assay concerns the target T1, epoxysqualene cyclase (Rattus norvegicus, UniProt P48450).
T1 construct: Rat hepatic microsomes were used as the source of the enzyme; from tissue; host or cells: liver microsomes of male Wistar rats
T1 sequence (P48450 1-733): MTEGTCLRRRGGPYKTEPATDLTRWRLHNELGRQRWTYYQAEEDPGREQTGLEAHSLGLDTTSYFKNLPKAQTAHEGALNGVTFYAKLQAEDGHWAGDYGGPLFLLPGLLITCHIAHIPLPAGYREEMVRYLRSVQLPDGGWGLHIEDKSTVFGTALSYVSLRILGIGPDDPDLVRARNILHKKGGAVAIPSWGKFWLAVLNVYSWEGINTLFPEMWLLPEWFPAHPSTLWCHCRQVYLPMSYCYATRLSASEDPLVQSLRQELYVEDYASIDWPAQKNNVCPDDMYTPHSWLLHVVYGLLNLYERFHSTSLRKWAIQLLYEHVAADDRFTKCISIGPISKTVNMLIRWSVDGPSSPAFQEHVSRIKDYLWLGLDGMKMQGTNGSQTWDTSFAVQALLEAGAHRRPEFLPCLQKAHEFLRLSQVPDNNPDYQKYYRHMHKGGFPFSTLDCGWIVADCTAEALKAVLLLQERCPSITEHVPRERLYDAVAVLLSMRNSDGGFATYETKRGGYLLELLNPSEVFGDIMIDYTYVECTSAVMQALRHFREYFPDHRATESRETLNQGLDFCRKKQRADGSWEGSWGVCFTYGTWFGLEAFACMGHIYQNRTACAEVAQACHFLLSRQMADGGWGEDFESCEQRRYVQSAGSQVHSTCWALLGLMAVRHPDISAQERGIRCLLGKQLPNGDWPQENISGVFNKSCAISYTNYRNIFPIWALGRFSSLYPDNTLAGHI
Put plainly: inhibition of epoxysqualene cyclase in rat hepatic microsomes (lanosterol formed from (R,S)-2,3-oxydosqualene). The following applies: 25.10^-6 moles per liter of tested product; 150 μM (R,S)-2,3-oxydosqualene, 60 minutes at 37° C., pH=7.4; read-out: Inhibition percentage (of the quantity of lanosterol formed). The assay is classed as biochemical, male Wistar rats. As for the experimental part: The activity of the Compounds of the invention was evaluated by the observation of an inhibiting effect on epoxysqualene cyclase in the hepatic microsomes of male Wistar rats.
The method consisted of measuring the lanosterol formed from R,S-2,3-oxydosqualene by the microsomal enzyme. The enzyme was prepared using the method described by G. C. Ness (G. C. Ness et. al., Biochem. J., (1986), 233, 167-172).
Method for Measuring the Activity of Epoxysqualene Cyclase
Rat hepatic microsomes were used as the source of the enzyme. The method consisted in measuring the lanosterol formed from (R,S)-2,3-oxydosqualene.The (R,S)-2,3-oxydosqualene, the products to be tested and TWEEN® 80 in organic solution (2-propanone or sulphinyl bis-methane) (25 μl) were placed in test tubes and 400 μl of potassium buffer (0.1M, pH=7.4) was added. The reaction was initiated by adding 100 μl of the microsomes. In a final reaction volume of 525 μl, the mixture contained 150 μM of (R,S)-2,3-oxydosqualene, 0.1% of TWEEN® 80 (to dissolve the (R,S)-2,3-oxydosqualene) and 250 μg of microsomal proteins. The reaction time was 60 minutes at 37° C. The reaction was stopped by addition of 300 μl of methanolic potassium hydroxide (7%) and 20 μg of stigmasterol as an internal standard. After saponification at 80° C. for 30 minutes and stirring using a rotary stirrer, the sterols were extracted with 2 ml of hexane. The lanosterol formed was separated from the (R,S)-2,3-oxydosqualene, the membranal cholesterol and the stigmasterol by gas phase chromatography after transformation to the trimethylsilyl ethers. Derivatisation of the sterols was carried out at 60° C. for 30 minutes after addition of 25 μl of pyridine and 75 μl of the trimethylsilyl ester of 2,2,2-trifluoro-N-trimethylsily-ethanimidic acid containing 1% of trimethylchlorosilane ethers.
After evaporation, the trimethylsilyl ethers were taken up into solution in 100 μl of hexane. An aliquot of this solution (2 μl) was gas chromatographed on a OV1 capillary column (0.32 mm, 25 m) under the following conditions: injection temperature=270° C., furnace temperature=260° C., detector temperature=300° C.; the vector gas was nitrogen at a pressure of 7.10^4 Pa.
The potency of the molecules tested was expressed as the percentage inhibition of the quantity of lanosterol formed for a concentration of 25.10^-6 moles per liter of product tested.
With `CCOC(=O)CCCN1CCC(C(C)(C)CN(C)C)CC1` [Example 25], the inhibition amounted to 81%.

On to `CCCCCCCCCCCCN1CCC(C(C)(C)CN)CC1` [Example 1, 1-dodecyl-β,β-dimethyl-4-piperidineethanamine], for which the inhibition came out at 75%.

In the case of `CCCCCCCCCCC(=O)N1CCC(C(C)(C)CN(C)C)CC1` [Example 19, 1-undecanoyl-N,N,β,β-tetramethyl-4-piperidineethanamine], the inhibition was 100%.

Take `CN(C)CC(C)(C)C1CCN(CCCCCCCCCCCn2ccnc2)CC1` [Example 21, 1-[(11-imidazolyl)undecyl]-N,N,β,β-tetramethyl-4-piperidineethanamine]: the inhibition was determined as 100%.

Take `CN(C)CC(C)(C)C1CCN(CC=Cc2ccccc2)CC1` [Example 31, 1-(3-phenylpropenyl)-N,N,β,β-tetramethyl-4-piperidineethanamine]: the inhibition was 99%.

With `CCCCCCCCCCCCN1CCC(C(C)(C)CN(CC)CC)CC1` [Example 4, 1-dodecyl-N,N-diethyl,β,β-dimethyl-4-piperidineethanamine], the inhibition amounted to 63%.

On to `CCCCCCCCCCCCN1CCC(C(C)(C)CN2CCCCC2)CC1` [Example 15, 1-[[2-[4-(1-dodecylpiperidinyl)]-2-methyl]propyl]piperidine], for which the inhibition was 40%.

As for `CC(C)Cc1ccc(C(C)CN2CCC(C(C)(C)CN(C)C)CC2)cc1` (stereo not drawn) [Example 32, 1-[2-[4-(2-methylpropyl)phenyl]-2-methylethyl]-N,N,β,β-tetramethyl-4-piperidineethanamine], the inhibition was 95%.

For `CC(Cc1ccc(C(C)C)cc1)CN1CCC(C(C)(C)CN(C)C)CC1` (stereo not drawn) [Example 18, 1-[3-[4-(methylethyl)phenyl]-2-methyl-propyl]-N,N,β,β-tetramethyl-4-piperidineethanamine], the inhibition was determined as 100%.

Turning to `CCCCCCCCCCCCN1CCC(C(C)(C)CNCC)CC1` [Example 9, 1-dodecyl-N-ethyl,β,β-dimethyl-4-piperidineethanamine], the inhibition came out at 96%.

For the molecule `CCCCCCCCCCCCN1CCC(C(C)(C)CN(C)C)CC1` [Example 2, 1-dodecyl-N,N,β,β-tetramethyl-4-piperidineethanamine], the inhibition amounted to 97%.

Consider `CN(C)CC(C)(C)C1CCN(C(=O)CCCCCCCCCCn2ccnc2)CC1` [Example 20, 1-[(11-imidazolyl)undecanoyl]-N,N,β,β-tetramethyl-4-piperidineethanamine], for which the inhibition is 100%.

As to `CN(C)CC(C)(C)C1CCN(C/C=C/C#CC(C)(C)C)CC1` [Example 16, (E)-1-(6,6-dimethyl-2-hepten-4-yn-1-yl)-N,N,β,β-tetramethyl-4-piperidineethanamine], the inhibition was 100%.

Turning to `CC(C)=CCN1CCC(C(C)(C)CN(C)C)CC1` [Example 14, 1-(3,3-dimethylpropen-2-yl)-N,N,β,β-tetramethyl-4-piperidineethanamine], the inhibition amounted to 48%.

As for `CN(C)CC(C)(C)C1CCN(C(=O)C=Cc2ccccc2)CC1` [Example 28, 1-(3-phenylpropenoyl)-N,N,β,β-tetramethyl-4-piperidineethanamine], the inhibition stood at 87%.

Regarding `CCCCCCCCCCCC(=O)N1CCC(C(C)(C)C[N+](C)(C)C)CC1` [Example 27, 1-[(1-undecyl)carbonyl]-N,N,N,β,β-pentamethyl-4-piperidinethanaminium Iodide], the inhibition is 100%.

`CN(C)CC(C)(C)C1CCN(C(=O)C(C)(C)Oc2ccc(Cl)cc2)CC1` [Example 29, 1-[2-(4-chlorophenoxy)-2,2-dimethyl-ethanoyl]-N,N,β,β-tetramethyl-4-piperidineethanamine]: the inhibition was determined as 95%.

`CCCCCCCCCCCCN1CCC(C(C)(C)CNC(C)=O)CC1` [Example 11, N-[2-methyl-2-[(1-dodecyl)-4-piperidinyl]propyl]-N-acetamide]: the inhibition was 58%.

Consider `CN(C)CC(C)(C)C1CCN(CCCCCC(C)(C)C)CC1` [Example 17, 1-(6,6-dimethyl-heptyl)-N,N,β,β-tetramethyl-4-piperidineethanamine], for which the inhibition amounted to 100%.

Turning to `CN(C)CC(C)(C)C1CCN(CC(C)(C)Oc2ccc(Cl)cc2)CC1` [Example 30, 1-[2-(4-chlorophenoxy)-2,2-dimethyl-ethyl]-N,N,β,β-tetramethyl-4-piperidineethanamine], the inhibition is 92%.

`CCCCCCCCCCCCN1CCC(C(C)(C)CN(C)C(C)=O)CC1` [Example 10, N-methyl-N-[2-methyl-2-[(1-dodecyl)-4-piperidinyl]propyl]acetamide]: the inhibition was found to be 66%.

Consider `CC(C)CCCC(=O)NCCCN1CCC(C(C)(C)CN(C)C)CC1` [Example 24, N-[[4-[2-(1-dimethylamino-2-methyl)propyl]-1-piperidinyl]-1-propyl]-5-methylhexanamide], for which the inhibition turned out to be 93%.

As to `CC(C)CCCNC(=O)CCCN1CCC(C(C)(C)CN(C)C)CC1` [Example 26, N-(4-methylpentyl)-4-[2-(1-dimethylamino-2-methyl)propyl]-1-piperidinebutanamide], the inhibition was determined as 100%.

Turning to `C=CCN1CCC(C(C)(C)CN(C)C)CC1` [Example 13, 1-(2-propenyl)-N,N,β,β-tetramethyl-4-piperidineethanamine], the inhibition turned out to be 64%.
